From patent US8946223B2, “Substituted hydroxamic acids and uses thereof” (Millennium Pharmaceuticals, Inc., priority 2010, dated 2015)

Molecular target: T1, purified human HDAC6 (Homo sapiens, UniProt Q9UBN7)
T1 construct: purchased BPS Bioscience 5006
T1 sequence (Q9UBN7 1-1215): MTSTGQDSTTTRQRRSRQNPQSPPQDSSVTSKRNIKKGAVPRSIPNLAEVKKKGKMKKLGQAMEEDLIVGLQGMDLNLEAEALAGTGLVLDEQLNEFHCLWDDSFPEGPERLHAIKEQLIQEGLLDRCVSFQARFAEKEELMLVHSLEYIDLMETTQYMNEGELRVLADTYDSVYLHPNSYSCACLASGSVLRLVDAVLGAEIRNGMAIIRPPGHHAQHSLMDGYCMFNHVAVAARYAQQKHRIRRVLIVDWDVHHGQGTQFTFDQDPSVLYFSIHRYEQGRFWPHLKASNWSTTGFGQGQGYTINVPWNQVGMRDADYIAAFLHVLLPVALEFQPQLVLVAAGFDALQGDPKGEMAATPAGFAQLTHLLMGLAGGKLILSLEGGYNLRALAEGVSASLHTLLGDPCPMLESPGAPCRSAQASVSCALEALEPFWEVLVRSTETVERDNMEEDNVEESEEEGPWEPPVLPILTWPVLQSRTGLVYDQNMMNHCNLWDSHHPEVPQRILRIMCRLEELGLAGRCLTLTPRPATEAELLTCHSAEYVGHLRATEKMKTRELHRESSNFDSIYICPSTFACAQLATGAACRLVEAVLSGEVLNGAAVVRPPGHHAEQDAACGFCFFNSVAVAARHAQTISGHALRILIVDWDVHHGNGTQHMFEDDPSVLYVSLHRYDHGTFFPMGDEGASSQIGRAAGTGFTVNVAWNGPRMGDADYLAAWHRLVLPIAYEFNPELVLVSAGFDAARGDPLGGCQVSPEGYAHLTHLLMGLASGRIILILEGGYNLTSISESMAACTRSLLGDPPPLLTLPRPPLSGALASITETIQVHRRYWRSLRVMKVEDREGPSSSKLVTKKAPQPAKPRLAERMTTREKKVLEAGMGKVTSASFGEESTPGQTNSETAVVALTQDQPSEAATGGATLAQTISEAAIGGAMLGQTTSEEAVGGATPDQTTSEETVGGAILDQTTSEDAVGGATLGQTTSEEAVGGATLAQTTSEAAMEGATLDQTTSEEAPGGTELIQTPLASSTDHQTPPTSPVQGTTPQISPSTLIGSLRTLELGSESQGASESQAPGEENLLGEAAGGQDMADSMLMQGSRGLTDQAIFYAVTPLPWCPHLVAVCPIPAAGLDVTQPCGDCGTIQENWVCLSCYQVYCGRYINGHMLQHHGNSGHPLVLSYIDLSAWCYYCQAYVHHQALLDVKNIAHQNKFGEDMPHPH
Assay: HDAC6 enzyme assay
Assay type: biochemical
Description: To measure the inhibition of HDAC6 activity, purified human HDAC6 (BPS Bioscience; Cat. No. 5006) is incubated with substrate Ac-Arg-Gly-Lys(Ac)-AMC peptide (Bachem Biosciences; Cat. No. I-1925) for 1 hour at 30° C. in the presence of test compounds or vehicle DMSO control. The reaction is stopped with the HDAC inhibitor trichostatin A (Sigma; Cat. No. T8552) and the amount of Arg-Gly-Lys-AMC generated is quantitated by digestion with trypsin (Sigma; Cat. No. T1426) and subsequent measurement of the amount of AMC released using a fluorescent plate reader (Pherastar; BMG Technologies) set at Ex 340 nm and Em 460 nm. Concentration response curves are generated by calculating the fluorescence increase in test compound-treated samples relative to DMSO-treated controls, and enzyme inhibition (IC50) values are determined from those curves.

[1] = bins: greater than 1 μM and less than 10 μM, greater than 10 μM

IC50 [1] [nM] | IC50 (bin: less than 100 nM) [nM] | SMILES
1000 to 10000 | – | O=C(NO)c1cc2n(n1)CCN(C(=O)CCc1ccccc1)C2 [Compound I-106, N-hydroxy-5-(3-phenylpropanoyl)-4,5,6,7-tetrahydropyrazolo[1,5-a]pyrazine-2-carboxamide]
– | < 100 | O=C(NO)c1cc2n(c1)CCN(C(=O)c1csc3ccccc13)C2 [Compound I-10, 2-(1-benzothien-3-ylcarbonyl)-N-hydroxy-1,2,3,4-tetrahydropyrrolo[1,2-a]pyrazine-7-carboxamide]
1000 to 10000 | – | O=C(NO)c1cc2n(c1)CCCN(C(=O)C1(c3ccc(Cl)cc3)CC1)C2 [Compound I-34, 2-{[1-(4-chlorophenyl)cyclopropyl]carbonyl}-N-hydroxy-2,3,4,5-tetrahydro-1H-pyrrolo[1,2-a][1,4]diazepine-8-carboxamide]
1000 to 10000 | – | Cc1onc(-c2ccccc2)c1NC(=O)N1CCn2cc(C(=O)NO)nc2C1 [Compound I-122, N2-hydroxy-N7-(5-methyl-3-phenylisoxazol-4-yl)-5,6-dihydroimidazo[1,2-a]pyrazine-2,7(8H)-dicarboxamide]
1000 to 10000 | – | CC1(C(=O)N2CCCn3cc(C(=O)NO)cc3C2)CCCCC1 [Compound I-74, N-hydroxy-2-[(1-methylcyclohexyl)carbonyl]-2,3,4,5-tetrahydro-1H-pyrrolo[1,2-a][1,4]diazepine-8-carboxamide]
1000 to 10000 | – | CC1(C(=O)N2CCn3cc(C(=O)NO)nc3C2)CCCCC1 [Compound I-26, N-hydroxy-7-(1-methylcyclohexanecarbonyl)-5,6,7,8-tetrahydroimidazo[1,2-a]pyrazine-2-carboxamide]
1000 to 10000 | – | Cc1nc(C(=O)N2CCn3cc(C(=O)NO)nc3C2)cs1 [Compound I-55, N-hydroxy-7-[(2-methyl-1,3-thiazol-4-yl)carbonyl]-5,6,7,8-tetrahydroimidazo[1,2-a]pyrazine-2-carboxamide]
– | < 100 | Cc1ccc2[nH]c(C(=O)N3CCn4cc(C(=O)NO)cc4C3)c(C)c2c1 [Compound I-28, 2-[(3,5-dimethyl-1H-indol-2-yl)carbonyl]-N-hydroxy-1,2,3,4-tetrahydropyrrolo[1,2-a]pyrazine-7-carboxamide]
1000 to 10000 | – | O=C(NO)c1cc2n(c1)CCCN(C(=O)c1csc3ccccc13)C2 [Compound I-96, 2-(1-benzothien-3-ylcarbonyl)-N-hydroxy-2,3,4,5-tetrahydro-1H-pyrrolo[1,2-a][1,4]diazepine-8-carboxamide]
> 10000 | – | Cc1cc(C(=O)N2CCCn3cc(C(=O)NO)cc3C2)c(C)o1 [Compound I-4, 2-(2,5-dimethyl-3-furoyl)-N-hydroxy-2,3,4,5-tetrahydro-1H-pyrrolo[1,2-a][1,4]diazepine-8-carboxamide]
– | < 100 | Cc1c(C(=O)N2CCn3cc(C(=O)NO)cc3C2)cnn1-c1ccccc1 [Compound I-99, N-hydroxy-2-[(5-methyl-1-phenyl-1H-pyrazol-4-yl)carbonyl]-1,2,3,4-tetrahydropyrrolo[1,2-a]pyrazine-7-carboxamide]
1000 to 10000 | – | O=C(NO)c1cc2n(n1)CCN(CC1CC1)C2=O [Compound I-83, 5-(cyclopropylmethyl)-N-hydroxy-4-oxo-4,5,6,7-tetrahydropyrazolo[1,5-a]pyrazine-2-carboxamide]
1000 to 10000 | – | O=C(NO)c1cc2n(c1)CCN(C(=O)c1cnn(-c3ccccc3)c1C(F)(F)F)C2 [Compound I-64, N-hydroxy-2-{[1-phenyl-5-(trifluoromethyl)-1H-pyrazol-4-yl]carbonyl}-1,2,3,4-tetrahydropyrrolo[1,2-a]pyrazine-7-carboxamide]
1000 to 10000 | – | CCOCCN1CCn2nc(C(=O)NO)cc2C1=O [Compound I-88, 5-(2-ethoxyethyl)-N-hydroxy-4-oxo-4,5,6,7-tetrahydropyrazolo[1,5-a]pyrazine-2-carboxamide]
> 10000 | – | COc1ccc(C(=O)N2CCCn3nc(C(=O)NO)cc3C2)cc1 [Compound I-53, N-hydroxy-5-(4-methoxybenzoyl)-5,6,7,8-tetrahydro-4H-pyrazolo[1,5-a][1,4]diazepine-2-carboxamide]
– | < 100 | O=C(NO)c1cc2n(c1)CCN(C(=O)c1c[nH]c3ccccc13)C2 [Compound I-75, N-hydroxy-2-(1H-indol-3-ylcarbonyl)-1,2,3,4-tetrahydropyrrolo[1,2-a]pyrazine-7-carboxamide]
1000 to 10000 | – | CC(C)N1CCn2nc(C(=O)NO)cc2C1=O [Compound I-46, N-hydroxy-5-isopropyl-4-oxo-4,5,6,7-tetrahydropyrazolo[1,5-a]pyrazine-2-carboxamide]
1000 to 10000 | – | O=C(NO)c1cc2n(n1)CCCN(C(=O)c1cc3ccccc3s1)C2 [Compound I-98, 5-(1-benzothien-2-ylcarbonyl)-N-hydroxy-5,6,7,8-tetrahydro-4H-pyrazolo[1,5-a][1,4]diazepine-2-carboxamide]
1000 to 10000 | – | Cc1c(C(=O)N2CCCn3nc(C(=O)NO)cc3C2)oc2ccccc12 [Compound I-108, N-hydroxy-5-[(3-methyl-1-benzofuran-2-yl)carbonyl]-5,6,7,8-tetrahydro-4H-pyrazolo[1,5-a][1,4]diazepine-2-carboxamide]
– | < 100 | Cn1c(C(=O)N2CCn3cc(C(=O)NO)cc3C2)ccc1S(N)(=O)=O [Compound I-47, 2-{[5-(aminosulfonyl)-1-methyl-1H-pyrrol-2-yl]carbonyl}-N-hydroxy-1,2,3,4-tetrahydropyrrolo[1,2-a]pyrazine-7-carboxamide]
1000 to 10000 | – | O=C(NO)c1cc2n(n1)CCN(CCCn1cccc1)C2=O [Compound I-109, N-hydroxy-4-oxo-5-[3-(1H-pyrrol-1-yl)propyl]-4,5,6,7-tetrahydropyrazolo[1,5-a]pyrazine-2-carboxamide]
1000 to 10000 | – | CC(C)(C)CC(=O)N1CCCn2cc(C(=O)NO)cc2C1 [Compound I-59, 2-(3,3-dimethylbutanoyl)-N-hydroxy-2,3,4,5-tetrahydro-1H-pyrrolo[1,2-a][1,4]diazepine-8-carboxamide]
1000 to 10000 | – | O=C(NO)c1cn2c(n1)CN(C(=O)NCc1ccccc1)CC2 [Compound I-123, N7-benzyl-N2-hydroxy-5,6-dihydroimidazo[1,2-a]pyrazine-2,7(8H)-dicarboxamide]
> 10000 | – | CS(=O)(=O)c1cccc(C(=O)N2CCn3cc(C(=O)NO)cc3C2)c1 [Compound I-54, N-hydroxy-2-[3-(methylsulfonyl)benzoyl]-1,2,3,4-tetrahydropyrrolo[1,2-a]pyrazine-7-carboxamide]
1000 to 10000 | – | CC(C)(C)c1ccc(C(=O)N2CCCn3cc(C(=O)NO)cc3C2)cc1 [Compound I-18, 2-(4-tert-butylbenzoyl)-N-hydroxy-2,3,4,5-tetrahydro-1H-pyrrolo[1,2-a][1,4]diazepine-8-carboxamide]
– | < 100 | Cn1cccc1C(=O)N1CCn2cc(C(=O)NO)cc2C1 [Compound I-32, N-hydroxy-2-[(1-methyl-1H-pyrrol-2-yl)carbonyl]-1,2,3,4-tetrahydropyrrolo[1,2-a]pyrazine-7-carboxamide]
1000 to 10000 | – | CC(C)(C(=O)N1CCn2nc(C(=O)NO)cc2C1)c1ccc(Cl)cc1 [Compound I-37, 5-[2-(4-chlorophenyl)-2-methylpropanoyl]-N-hydroxy-4,5,6,7-tetrahydropyrazolo[1,5-a]pyrazine-2-carboxamide]
– | < 100 | Cn1c(C(=O)N2CCn3cc(C(=O)NO)cc3C2)cc2ccccc21 [Compound I-20, N-hydroxy-2-[(1-methyl-1H-indol-2-yl)carbonyl]-1,2,3,4-tetrahydropyrrolo[1,2-a]pyrazine-7-carboxamide]
– | < 100 | Cc1cc(C(=O)N2CCn3cc(C(=O)NO)cc3C2)c(C)n1Cc1cccs1 [Compound I-35, 2-{[2,5-dimethyl-1-(2-thienylmethyl)-1H-pyrrol-3-yl]carbonyl}-N-hydroxy-1,2,3,4-tetrahydropyrrolo[1,2-a]pyrazine-7-carboxamide]
